Experimental data taken from ChEMBL document CHEMBL2434896, “Carbonic anhydrase inhibitors. Synthesis of heterocyclic 4-substituted pyridine-3-sulfonamide derivatives and their inhibition of the human cytosolic isozymes I and II and transmembrane tumor-associated isozymes IX and XII” (Eur J Med Chem, 2013).
Active and inactive are the calls of the source. The rule behind the calls is not given here.

Experiments:
[1] = test system: Malme-3M; experiment: Growth inhibition of human MALME-3M cells at 10 uM after 48 hrs by sulforhodamine B assay; assay type: functional; details: read-out: GI
[2] = test system: LOX IMVI; experiment: Growth inhibition of human LOXIMVI cells at 10 uM after 48 hrs by sulforhodamine B assay; assay type: functional; details: read-out: GI
[3] = test system: SNB-75; experiment: Growth inhibition of human SNB75 cells at 10 uM after 48 hrs by sulforhodamine B assay; assay type: functional; details: SNB-75, 48 h, read-out: GI
[4] = test system: SF-539; experiment: Growth inhibition of human SF539 cells at 10 uM after 48 hrs by sulforhodamine B assay; assay type: functional
[5] = test system: SF-268; experiment: Growth inhibition of human SF268 cells at 10 uM after 48 hrs by sulforhodamine B assay; assay type: functional; details: SF-268, 48 h, read-out: GI
[6] = test system: SW-620; experiment: Growth inhibition of human SW620 cells at 10 uM after 48 hrs by sulforhodamine B assay; assay type: functional
[7] = test system: HT-29; experiment: Growth inhibition of human HT-29 cells at 10 uM after 48 hrs by sulforhodamine B assay; assay type: functional
[8] = test system: HCT-15; experiment: Growth inhibition of human HCT15 cells at 10 uM after 48 hrs by sulforhodamine B assay; assay type: functional
[9] = test system: HCT-116; experiment: Growth inhibition of human HCT116 cells at 10 uM after 48 hrs by sulforhodamine B assay; assay type: functional
[10] = test system: HCC 2998; experiment: Growth inhibition of human HCC2998 cells at 10 uM after 48 hrs by sulforhodamine B assay; assay type: functional
[11] = test system: COLO 205; experiment: Growth inhibition of human COLO205 cells at 10 uM after 48 hrs by sulforhodamine B assay; assay type: functional
[12] = test system: NCI-H522; experiment: Growth inhibition of human NCI-H522 cells at 10 uM after 48 hrs by sulforhodamine B assay; assay type: functional; details: NCI-H522, 48 h, read-out: GI
[13] = test system: NCI-H460; experiment: Growth inhibition of human NCI-H460 cells at 10 uM after 48 hrs by sulforhodamine B assay; assay type: functional
[14] = test system: NCI-H322M; experiment: Growth inhibition of human NCI-H322M cells at 10 uM after 48 hrs by sulforhodamine B assay; assay type: functional
[15] = test system: NCI-H23; experiment: Growth inhibition of human NCI-H23 cells at 10 uM after 48 hrs by sulforhodamine B assay; assay type: functional
[16] = test system: HOP-62; experiment: Growth inhibition of human HOP62 cells at 10 uM after 48 hrs by sulforhodamine B assay; assay type: functional
[17] = test system: A549; experiment: Growth inhibition of human A549/ATCC cells at 10 uM after 48 hrs by sulforhodamine B assay; assay type: functional
[18] = test system: SR; experiment: Growth inhibition of human SR cells at 10 uM after 48 hrs by sulforhodamine B assay; assay type: functional; details: read-out: GI
[19] = test system: RPMI-8226; experiment: Growth inhibition of human RPMI8226 cells at 10 uM after 48 hrs by sulforhodamine B assay; assay type: functional
[20] = test system: MOLT-4; experiment: Growth inhibition of human MOLT4 cells at 10 uM after 48 hrs by sulforhodamine B assay; assay type: functional; details: MOLT-4, 48 h, read-out: GI
[21] = test system: HL-60(TB); experiment: Growth inhibition of human HL-60(TB) cells at 10 uM after 48 hrs by sulforhodamine B assay; assay type: functional; details: HL-60, 48 h, read-out: GI
[22] = test system: CCRF-CEM; experiment: Growth inhibition of human CCRF-CEM cells at 10 uM after 48 hrs by sulforhodamine B assay; assay type: functional; details: read-out: GI
[23] = biological target: Carbonic anhydrase 9 (Homo sapiens, UniProt Q16790); experiment: Inhibition of human carbonic anhydrase 9 after 15 mins by stopped flow CO2 hydration assay
[24] = test system: MDA-MB-468; experiment: Growth inhibition of human MDA-MB-468 cells at 10 uM after 48 hrs by sulforhodamine B assay; assay type: functional
[25] = test system: Hs-578T; experiment: Growth inhibition of human Hs 578T cells at 10 uM after 48 hrs by sulforhodamine B assay; assay type: functional
[26] = test system: MDA-MB-231; experiment: Growth inhibition of human MDA-MB-231 cells at 10 uM after 48 hrs by sulforhodamine B assay; assay type: functional
[27] = test system: MCF7; experiment: Growth inhibition of human MCF7 cells at 10 uM after 48 hrs by sulforhodamine B assay; assay type: functional
[28] = test system: DU-145; experiment: Growth inhibition of human DU145 cells at 10 uM after 48 hrs by sulforhodamine B assay; assay type: functional
[29] = test system: PC-3; experiment: Growth inhibition of human PC3 cells at 10 uM after 48 hrs by sulforhodamine B assay; assay type: functional
[30] = test system: UO-31; experiment: Growth inhibition of human UO31 cells at 10 uM after 48 hrs by sulforhodamine B assay; assay type: functional; details: UO-31, 48 h, read-out: GI
[31] = test system: TK-10; experiment: Growth inhibition of human TK10 cells at 10 uM after 48 hrs by sulforhodamine B assay; assay type: functional
[32] = test system: SN12C; experiment: Growth inhibition of human SN12C cells at 10 uM after 48 hrs by sulforhodamine B assay; assay type: functional
[33] = test system: RXF 393; experiment: Growth inhibition of human RXF393 cells at 10 uM after 48 hrs by sulforhodamine B assay; assay type: functional
[34] = test system: CAKI-1; experiment: Growth inhibition of human CAKI-1 cells at 10 uM after 48 hrs by sulforhodamine B assay; assay type: functional
[35] = test system: ACHN; experiment: Growth inhibition of human ACHN cells at 10 uM after 48 hrs by sulforhodamine B assay; assay type: functional
[36] = test system: A498; experiment: Growth inhibition of human A498 cells at 10 uM after 48 hrs by sulforhodamine B assay; assay type: functional
[37] = test system: 786-0; experiment: Growth inhibition of human 786-0 cells at 10 uM after 48 hrs by sulforhodamine B assay; assay type: functional; details: 786-0, 48 h, read-out: GI
[38] = test system: OVCAR-8; experiment: Growth inhibition of human OVCAR8 cells at 10 uM after 48 hrs by sulforhodamine B assay; assay type: functional
[39] = test system: OVCAR-5; experiment: Growth inhibition of human OVCAR5 cells at 10 uM after 48 hrs by sulforhodamine B assay; assay type: functional
[40] = test system: OVCAR-3; experiment: Growth inhibition of human OVCAR3 cells at 10 uM after 48 hrs by sulforhodamine B assay; assay type: functional
[41] = test system: IGROV-1; experiment: Growth inhibition of human IGROV1 cells at 10 uM after 48 hrs by sulforhodamine B assay; assay type: functional
[42] = test system: UACC-62; experiment: Growth inhibition of human UACC62 cells at 10 uM after 48 hrs by sulforhodamine B assay; assay type: functional
[43] = test system: UACC-257; experiment: Growth inhibition of human UACC257 cells at 10 uM after 48 hrs by sulforhodamine B assay; assay type: functional
[44] = test system: SK-MEL-28; experiment: Growth inhibition of human SK-MEL-28 cells at 10 uM after 48 hrs by sulforhodamine B assay; assay type: functional, cell-based
[45] = test system: SK-MEL-2; experiment: Growth inhibition of human SK-MEL-2 cells at 10 uM after 48 hrs by sulforhodamine B assay; assay type: functional
[46] = test system: M14; experiment: Growth inhibition of human M14 cells at 10 uM after 48 hrs by sulforhodamine B assay; assay type: functional

NS(=O)(=O)c1cnccc1N1CCN(c2ncccn2)CC1
inhibition of growth at 10 µM [1]: 6% | inhibition of growth at 10 µM [2]: 4% | inhibition of growth at 10 µM [3]: 11% | growth inhibition (GI) [4]: inactive | inhibition of growth at 10 µM [5]: 5% | growth inhibition (GI) [6]: inactive | growth inhibition (GI) [7]: inactive | growth inhibition (GI) [8]: inactive | growth inhibition (GI) [9]: inactive | growth inhibition (GI) [10]: inactive | growth inhibition (GI) [11]: inactive | inhibition of growth at 10 µM [12]: 2% | growth inhibition (GI) [13]: inactive | growth inhibition (GI) [14]: inactive | growth inhibition (GI) [15]: inactive | growth inhibition (GI) [16]: inactive | growth inhibition (GI) [17]: inactive | inhibition of growth at 10 µM [18]: 17% | growth inhibition (GI) [19]: inactive | inhibition of growth at 10 µM [20]: 6% | inhibition of growth at 10 µM [21]: 9% | inhibition of growth at 10 µM [22]: 10% | Ki [23]: 78.3 nM | growth inhibition (GI) [24]: inactive | growth inhibition (GI) [25]: inactive | growth inhibition (GI) [26]: inactive | growth inhibition (GI) [27]: inactive | growth inhibition (GI) [28]: inactive | growth inhibition (GI) [29]: inactive | inhibition of growth at 10 µM [30]: 15% | growth inhibition (GI) [31]: inactive | growth inhibition (GI) [32]: inactive | growth inhibition (GI) [33]: inactive | growth inhibition (GI) [34]: inactive | growth inhibition (GI) [35]: inactive | growth inhibition (GI) [36]: inactive | inhibition of growth at 10 µM [37]: 1% | growth inhibition (GI) [38]: inactive | growth inhibition (GI) [39]: inactive | growth inhibition (GI) [40]: inactive | growth inhibition (GI) [41]: inactive | growth inhibition (GI) [42]: inactive | growth inhibition (GI) [43]: inactive | growth inhibition (GI) [44]: inactive | growth inhibition (GI) [45]: inactive | growth inhibition (GI) [46]: inactive
